Results published in patent US9682141B2, “Combination of kinase inhibitors and uses thereof” (INTELLIKINE LLC, priority 2011, dated 2017).
Like-named read-outs stand apart in the source and are kept apart here.

What was measured:
Assay type in all cases: biochemical
PI3K α = PI3K α (Homo sapiens (Human), UniProt P42336); test: PI 3-Kinase (human) HTRF assay, p110α/p85α
[1] = PI 3-Kinase (human) HTRF assay, p110δ/p85α; conditions: read-out: PI3K γ IC50
PI3K β = PI3K β (Homo sapiens (Human), UniProt P42338); test: PI 3-Kinase (human) HTRF assay, p110β/p85α
Chain of PI3K β (P42338 whole entry): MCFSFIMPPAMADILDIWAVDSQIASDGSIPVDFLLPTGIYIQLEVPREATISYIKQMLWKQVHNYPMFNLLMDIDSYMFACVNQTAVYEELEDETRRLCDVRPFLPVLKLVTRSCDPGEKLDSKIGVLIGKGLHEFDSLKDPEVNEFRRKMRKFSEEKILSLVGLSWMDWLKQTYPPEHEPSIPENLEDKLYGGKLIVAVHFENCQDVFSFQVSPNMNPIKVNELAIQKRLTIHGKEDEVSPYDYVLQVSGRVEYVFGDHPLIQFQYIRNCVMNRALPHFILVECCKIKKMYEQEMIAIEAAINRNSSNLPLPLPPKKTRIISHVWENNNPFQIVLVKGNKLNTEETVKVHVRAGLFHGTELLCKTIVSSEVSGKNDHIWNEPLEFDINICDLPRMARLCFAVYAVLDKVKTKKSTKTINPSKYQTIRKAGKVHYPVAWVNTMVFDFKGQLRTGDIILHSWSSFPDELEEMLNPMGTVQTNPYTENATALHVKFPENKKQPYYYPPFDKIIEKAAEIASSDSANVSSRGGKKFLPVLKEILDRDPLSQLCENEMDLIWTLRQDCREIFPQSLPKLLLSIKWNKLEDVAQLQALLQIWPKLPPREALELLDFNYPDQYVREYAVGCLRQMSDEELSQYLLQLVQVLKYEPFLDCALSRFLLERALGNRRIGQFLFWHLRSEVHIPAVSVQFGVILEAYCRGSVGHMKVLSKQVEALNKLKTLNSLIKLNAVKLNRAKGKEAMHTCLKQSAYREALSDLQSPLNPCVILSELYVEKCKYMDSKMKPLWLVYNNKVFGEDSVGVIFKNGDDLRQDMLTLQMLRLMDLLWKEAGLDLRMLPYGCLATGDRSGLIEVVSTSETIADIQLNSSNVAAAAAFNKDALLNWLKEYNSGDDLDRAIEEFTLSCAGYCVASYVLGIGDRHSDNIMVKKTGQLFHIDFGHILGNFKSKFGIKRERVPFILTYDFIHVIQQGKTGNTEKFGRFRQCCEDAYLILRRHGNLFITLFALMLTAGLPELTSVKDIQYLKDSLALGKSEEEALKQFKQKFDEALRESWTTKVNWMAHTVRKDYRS
Chain of PI3K β (P27986 whole entry partner): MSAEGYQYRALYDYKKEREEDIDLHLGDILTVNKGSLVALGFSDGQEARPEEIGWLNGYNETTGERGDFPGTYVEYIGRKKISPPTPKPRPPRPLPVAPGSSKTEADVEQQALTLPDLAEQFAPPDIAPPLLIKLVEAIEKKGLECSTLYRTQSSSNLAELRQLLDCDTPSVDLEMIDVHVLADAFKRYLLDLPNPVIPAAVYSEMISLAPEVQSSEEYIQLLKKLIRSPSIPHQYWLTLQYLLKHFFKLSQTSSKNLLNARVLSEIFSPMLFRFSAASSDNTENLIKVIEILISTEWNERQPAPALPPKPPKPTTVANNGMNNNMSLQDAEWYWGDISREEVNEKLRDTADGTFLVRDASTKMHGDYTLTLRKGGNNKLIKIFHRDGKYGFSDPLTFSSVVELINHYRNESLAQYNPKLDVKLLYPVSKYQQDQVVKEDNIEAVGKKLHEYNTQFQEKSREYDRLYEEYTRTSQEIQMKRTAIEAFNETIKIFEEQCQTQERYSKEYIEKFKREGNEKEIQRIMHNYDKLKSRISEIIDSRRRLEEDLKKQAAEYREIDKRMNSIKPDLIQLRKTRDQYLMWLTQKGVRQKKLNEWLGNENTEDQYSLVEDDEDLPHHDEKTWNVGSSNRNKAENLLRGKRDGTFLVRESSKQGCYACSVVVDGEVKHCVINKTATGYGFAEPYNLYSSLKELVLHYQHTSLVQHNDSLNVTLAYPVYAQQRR

PI3K γ = PI3K γ (Homo sapiens (Human), UniProt P48736); test: PI 3-Kinase (human) HTRF assay, p110γ

Chain of PI3K α (P42336 whole entry): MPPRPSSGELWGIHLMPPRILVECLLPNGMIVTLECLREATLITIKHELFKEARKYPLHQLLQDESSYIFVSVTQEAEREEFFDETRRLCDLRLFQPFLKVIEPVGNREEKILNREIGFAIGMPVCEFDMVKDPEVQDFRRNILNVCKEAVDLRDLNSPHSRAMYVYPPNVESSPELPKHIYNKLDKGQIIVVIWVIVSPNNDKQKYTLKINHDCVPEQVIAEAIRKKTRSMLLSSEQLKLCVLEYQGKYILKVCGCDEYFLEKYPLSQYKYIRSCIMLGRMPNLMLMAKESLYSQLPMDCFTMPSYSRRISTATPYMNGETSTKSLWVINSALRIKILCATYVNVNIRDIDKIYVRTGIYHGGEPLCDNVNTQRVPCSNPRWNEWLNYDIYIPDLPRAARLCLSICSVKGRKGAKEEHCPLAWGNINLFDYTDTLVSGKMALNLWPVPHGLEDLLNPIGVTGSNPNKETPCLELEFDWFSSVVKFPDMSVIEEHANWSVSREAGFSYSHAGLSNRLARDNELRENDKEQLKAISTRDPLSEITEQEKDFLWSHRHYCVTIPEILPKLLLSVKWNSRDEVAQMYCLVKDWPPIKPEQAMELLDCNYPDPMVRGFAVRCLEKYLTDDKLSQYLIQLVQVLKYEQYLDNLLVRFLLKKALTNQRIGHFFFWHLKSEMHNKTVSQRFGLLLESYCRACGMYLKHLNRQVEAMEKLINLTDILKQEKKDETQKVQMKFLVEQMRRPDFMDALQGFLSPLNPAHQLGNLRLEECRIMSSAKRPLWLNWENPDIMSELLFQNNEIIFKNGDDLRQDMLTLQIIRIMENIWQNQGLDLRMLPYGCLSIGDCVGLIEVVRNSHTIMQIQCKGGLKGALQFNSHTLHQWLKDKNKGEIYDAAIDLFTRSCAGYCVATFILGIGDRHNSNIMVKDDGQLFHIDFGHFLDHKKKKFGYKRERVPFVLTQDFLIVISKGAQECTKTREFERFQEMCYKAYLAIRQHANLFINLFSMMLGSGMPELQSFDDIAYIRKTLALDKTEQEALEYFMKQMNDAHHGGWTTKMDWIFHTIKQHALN
Chain of PI3K α (P27986 whole entry partner): as the sequence (P27986 whole entry partner) above

## CC(C)N1CCC(n2cnc3ccc(-c4cncc(NS(=O)(=O)c5ccc(F)cc5F)c4)cc3c2=O)CC1
PI3K α
  IC50: < 1 µM
[1]
  IC50: < 10 µM
PI3K β
  IC50: < 10 µM
PI3K γ; read-out: PI3K δ IC50
  IC50: < 1 µM

## O=C(c1cnc2ccc(-c3cccc(NS(=O)(=O)c4ccc(F)cc4F)c3)cn12)N1CCOCC1
PI3K α
  IC50: < 10 µM
[1]
  IC50: < 10 µM
PI3K β
  IC50: > 10 µM
PI3K γ; read-out: PI3K δ IC50
  IC50: < 10 µM

## Nc1nc2nc(-c3ccc4ncc(C(=O)N5CCOCC5)n4c3)ccc2o1
PI3K α
  IC50: < 10 µM
[1]
  IC50: > 10 µM
PI3K β
  IC50: > 10 µM
PI3K γ; read-out: PI3K δ IC50
  IC50: > 10 µM

## Nc1nc2cc(-c3ccc4ncc(C(=O)N5CC(F)C5)n4c3)ccc2o1
PI3K α
  IC50: < 0.1 µM
[1]
  IC50: > 10 µM
PI3K β
  IC50: < 10 µM
PI3K γ; read-out: PI3K δ IC50
  IC50: < 0.1 µM

## Nc1nc2cc(-c3ccc4ncc(C(=O)N5CCOCC5)n4c3)c(F)cc2o1
PI3K α
  IC50: < 1 µM
[1]
  IC50: < 10 µM
PI3K β
  IC50: < 10 µM
PI3K γ; read-out: PI3K δ IC50
  IC50: < 10 µM

## CC(=O)Nc1n[nH]c2cc(-c3ccc4oc(N)nc4c3)ccc12
PI3K α
  IC50: < 10 µM
[1]
  IC50: > 10 µM
PI3K β
  IC50: < 10 µM
PI3K γ; read-out: PI3K δ IC50
  IC50: < 10 µM

## CC(=O)Nc1nc2ccc(-c3cc(F)c4oc(N)nc4c3)cc2s1
PI3K α
  IC50: < 0.1 µM
[1]
  IC50: < 0.1 µM
PI3K β
  IC50: < 0.1 µM
PI3K γ; read-out: PI3K δ IC50
  IC50: < 0.1 µM

## Nc1nc2cc(-c3ccc4ncc(N5CCn6cncc6C5)nc4c3)ccc2o1
PI3K α
  IC50: < 0.1 µM
[1]
  IC50: < 1 µM
PI3K β
  IC50: < 0.1 µM
PI3K γ; read-out: PI3K δ IC50
  IC50: < 0.1 µM

## C[C@H]1COCCN1C(=O)c1cnc2ccc(-c3ccc4oc(N)nc4c3)cn12
PI3K α
  IC50: < 0.1 µM
[1]
  IC50: > 10 µM
PI3K β
  IC50: < 10 µM
PI3K γ; read-out: PI3K δ IC50
  IC50: < 10 µM

## Cc1cc(-c2ccc3oc(N)nc3c2)cc2c(C(=O)N3CCOCC3)cnn12
PI3K α
  IC50: < 1 µM
[1]
  IC50: < 10 µM
PI3K β
  IC50: < 10 µM
PI3K γ; read-out: PI3K δ IC50
  IC50: < 1 µM

## CCN(CC)CC(=O)N1CCN(c2cnc3ccc(-c4ccc5oc(N)nc5c4)cc3n2)CC1
PI3K α
  IC50: < 0.1 µM
[1]
  IC50: < 10 µM
PI3K β
  IC50: < 10 µM
PI3K γ; read-out: PI3K δ IC50
  IC50: < 10 µM

## Nc1nc2cc(-c3ccc4ncc(C(=O)N5CC[C@H](O)C5)n4c3)ccc2o1
PI3K α
  IC50: < 0.1 µM
[1]
  IC50: < 10 µM
PI3K β
  IC50: < 10 µM
PI3K γ; read-out: PI3K δ IC50
  IC50: < 1 µM

## Nc1nc2cc(-c3ccc4ncc(C(=O)N5CCC6(C5)OCCO6)n4c3)ccc2o1
PI3K α
  IC50: < 1 µM
[1]
  IC50: > 10 µM
PI3K β
  IC50: > 10 µM
PI3K γ; read-out: PI3K δ IC50
  IC50: < 10 µM

## Nc1nc2ccc(-c3cc(F)c4oc(N)nc4c3)cc2o1
PI3K α
  IC50: < 1 µM
[1]
  IC50: < 10 µM
PI3K β
  IC50: < 1 µM
PI3K γ; read-out: PI3K δ IC50
  IC50: < 0.1 µM

## Nc1nc2cc(-c3ccc4sc(N)nc4c3)ccc2o1
PI3K α
  IC50: < 10 µM
[1]
  IC50: < 10 µM
PI3K β
  IC50: < 1 µM
PI3K γ; read-out: PI3K δ IC50
  IC50: < 1 µM

## Nc1nc2ccc(-c3ccc4nnc(C(=O)N5CCCC5)n4c3)cc2o1
PI3K α
  IC50: < 10 µM
[1]
  IC50: > 10 µM
PI3K β
  IC50: > 10 µM
PI3K γ; read-out: PI3K δ IC50
  IC50: > 10 µM

## COC1CN(C(=O)c2cnc3ccc(-c4ccc5oc(N)nc5c4)cn23)C1
PI3K α
  IC50: < 0.1 µM
[1]
  IC50: < 10 µM
PI3K β
  IC50: < 10 µM
PI3K γ; read-out: PI3K δ IC50
  IC50: < 0.1 µM

## CC(=O)n1nc(N)c2ccc(-c3ccc4oc(N)nc4c3)cc21
PI3K α
  IC50: > 10 µM
[1]
  IC50: > 10 µM
PI3K β
  IC50: > 10 µM
PI3K γ; read-out: PI3K δ IC50
  IC50: > 10 µM

## O=C(c1cnc2ccc(-c3ccc4oc(NC5CC5)nc4c3)cn12)N1CCOCC1
PI3K α
  IC50: < 10 µM
[1]
  IC50: > 10 µM
PI3K β
  IC50: > 10 µM
PI3K γ; read-out: PI3K δ IC50
  IC50: > 10 µM

## Nc1cn2cc(-c3ccc4nc(N)oc4c3)ccc2n1
PI3K α
  IC50: > 10 µM
[1]
  IC50: > 10 µM
PI3K β
  IC50: < 10 µM
PI3K γ; read-out: PI3K δ IC50
  IC50: < 10 µM

## C[C@H]1CN(c2cnc3cccc(-c4ccc5oc(N)nc5c4)c3n2)CCN1
PI3K α
  IC50: > 10 µM
[1]
  IC50: > 10 µM
PI3K β
  IC50: > 10 µM
PI3K γ; read-out: PI3K δ IC50
  IC50: > 10 µM

## Nc1nc2cc(-c3ccn4ncc(C(=O)N5CCC(N6CCOCC6)CC5)c4c3)ccc2o1
PI3K α
  IC50: < 1 µM
[1]
  IC50: < 10 µM
PI3K β
  IC50: < 10 µM
PI3K γ; read-out: PI3K δ IC50
  IC50: < 10 µM

## C[C@@H]1CN(C2CN(c3cnc4ccc(-c5ccc6oc(N)nc6c5)nc4n3)C2)CCN1C
PI3K α
  IC50: < 0.1 µM
PI3K β
  IC50: > 10 µM
PI3K γ; read-out: PI3K γ IC50
  IC50: < 10 µM

## CN1CCN(c2cnc3ccc(-c4ccc5oc(N)nc5c4)cc3n2)C(=O)C1
PI3K α
  IC50: < 10 µM
PI3K γ; read-out: PI3K δ IC50
  IC50: > 10 µM

## Nc1nc2cc(-c3ccc4ncc(C(=O)N5CCC(O)C5)n4c3)ccc2o1 (centres unmarked)
PI3K α
  IC50: < 0.1 µM
[1]
  IC50: < 10 µM
PI3K β
  IC50: < 10 µM

## Cc1c(-c2ccc3oc(N)nc3c2)ccc2ncc(N3CC(N4CCNCC4)C3)nc12
PI3K α
  IC50: < 0.1 µM
[1]
  IC50: > 10 µM
PI3K β
  IC50: > 10 µM

## CN(C)CC(=O)N1CCN(c2cnc3ccc(-c4ccc5oc(N)nc5c4)cc3n2)CC1 [drawing 407]
[1]
  IC50: < 1 µM
PI3K γ; read-out: PI3K δ IC50
  IC50: < 1 µM

## CC1CN(C(=O)c2cnc3ccc(-c4ccc5oc(N)nc5c4)cn23)CCO1 (centres unmarked)
PI3K α
  IC50: < 0.1 µM
[1]
  IC50: > 10 µM
PI3K β
  IC50: < 10 µM

## C[C@@H]1CN(c2cnc3ccc(-c4ccc5oc(N)nc5c4)nc3n2)CCN1
PI3K α
  IC50: < 0.1 µM
PI3K β
  IC50: < 0.1 µM
PI3K γ; read-out: PI3K γ IC50
  IC50: < 1 µM

## COc1ncc(-c2ccc3ncn(C4CCN(C)CC4)c(=O)c3c2)cc1NS(C)(=O)=O
PI3K α
  IC50: < 0.1 µM
PI3K β
  IC50: < 1 µM
PI3K γ; read-out: PI3K δ IC50
  IC50: < 10 µM
